Measurements: ChEMBL document CHEMBL2074450 (J Pharmacol Exp Ther, 2002)

Molecular target: ATP-dependent translocase ABCB1 (Homo sapiens, UniProt P08183)
Experiment: TP_TRANSPORTER: transepithelial transport (basal to apical) in HCT-8 cells
Assay type: functional, cell-based

ATP-dependent translocase ABCB1, sequence (P08183 whole entry): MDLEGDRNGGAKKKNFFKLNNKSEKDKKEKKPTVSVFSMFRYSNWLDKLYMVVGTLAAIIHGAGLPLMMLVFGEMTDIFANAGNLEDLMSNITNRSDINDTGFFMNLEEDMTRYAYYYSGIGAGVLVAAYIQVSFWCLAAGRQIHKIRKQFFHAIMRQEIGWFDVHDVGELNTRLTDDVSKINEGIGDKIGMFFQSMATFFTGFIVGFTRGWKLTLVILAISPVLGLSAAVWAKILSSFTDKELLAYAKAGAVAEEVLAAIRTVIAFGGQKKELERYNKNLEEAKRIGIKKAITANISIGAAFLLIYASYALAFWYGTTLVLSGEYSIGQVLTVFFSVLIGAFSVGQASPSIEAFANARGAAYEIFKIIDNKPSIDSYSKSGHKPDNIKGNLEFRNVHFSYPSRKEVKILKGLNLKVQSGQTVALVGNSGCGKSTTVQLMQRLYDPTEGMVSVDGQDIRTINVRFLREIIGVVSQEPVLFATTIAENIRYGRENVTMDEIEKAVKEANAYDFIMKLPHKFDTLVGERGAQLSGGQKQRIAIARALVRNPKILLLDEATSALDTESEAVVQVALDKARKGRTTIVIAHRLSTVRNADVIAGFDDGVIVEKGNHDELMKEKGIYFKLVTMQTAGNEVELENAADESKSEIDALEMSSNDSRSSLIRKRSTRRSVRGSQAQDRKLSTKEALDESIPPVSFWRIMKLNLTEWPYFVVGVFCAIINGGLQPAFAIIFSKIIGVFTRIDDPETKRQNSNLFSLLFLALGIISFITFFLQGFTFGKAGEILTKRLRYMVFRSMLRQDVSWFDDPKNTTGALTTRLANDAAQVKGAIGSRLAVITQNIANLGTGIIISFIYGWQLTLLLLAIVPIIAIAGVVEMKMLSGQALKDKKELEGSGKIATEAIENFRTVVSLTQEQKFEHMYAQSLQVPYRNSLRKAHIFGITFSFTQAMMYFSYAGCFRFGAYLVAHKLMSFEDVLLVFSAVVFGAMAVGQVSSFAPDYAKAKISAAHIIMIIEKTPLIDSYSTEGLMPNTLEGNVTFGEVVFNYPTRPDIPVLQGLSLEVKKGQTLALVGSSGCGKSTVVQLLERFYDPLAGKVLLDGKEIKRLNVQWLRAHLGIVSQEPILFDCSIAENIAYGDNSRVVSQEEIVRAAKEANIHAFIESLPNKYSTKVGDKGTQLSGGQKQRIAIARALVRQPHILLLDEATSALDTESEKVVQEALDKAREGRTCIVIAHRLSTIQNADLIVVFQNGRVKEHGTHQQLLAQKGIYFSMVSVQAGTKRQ

Compound: CO[C@H]1C[C@@H]2CC[C@@H](C)[C@@](O)(O2)C(=O)C(=O)N2CCCC[C@H]2C(=O)O[C@H]([C@H](C)C[C@@H]2CC[C@@H](O)[C@H](OC)C2)CC(=O)[C@H](C)/C=C(\C)[C@@H](O)[C@@H](OC)C(=O)[C@H](C)C[C@H](C)/C=C/C=C/C=C/1C [SIROLIMUS]
- Activity: is not a substrate [-]
